Values joined by “and” are separate entries in the source; they are usually repeats but may differ in a detail not shown here. Identical values can stand only once. Where no end group is shown, it is not given here.
Tested on: Escherichia coli strain DB3.1
Assay: microdilution assay of hβD2 coated biopolymers (percentage killing)
Assay type: cell-based
Method: Microdilution assay. In the microdilution assay the microorganisms were exposed to a potential bio-active substance in liquid surrounding, thus free to move. This potential bio-active substance was either homogenously dispersed in the liquid surrounding by active mixing at the beginning of the tests or could spread out of the sample during incubation time. The bioactivity was measured in percentage killing, wherein the number of colony forming units (CFU) in a control without test substance was set to 0% killing and a reduction in the cell number to zero was set to 100% killing.
Fresh cells were harvested by centrifugation at 1600 rpm for 10 min, the supernatant was removed and the cell pellet was resuspended in 5 ml 10 mM sodium phosphate buffer. This procedure was repeated twice. The optical density was adjusted to OD600 of 0.500 with 10 mM sodium phosphate buffer. 100 μl of the bacterial suspension was pipetted in one well of a microtiter plate without optimized surface. 10 μl test substance or test sample was added. In case of a test substance, the mixture was homogenized by absorbing the mixture several times with a pipette. The microtiter plate is then closed with parafilm and incubated at 37° C. for 2 h. After incubation the substances in the wells were mixed by a pipette. […] For evaluation, the grown colonies were counted.
The microdilution assay facilitates the examination of the hβD2 release kinetics of the biopolymers and thus allowed conclusions on what amounts of hβD2 in which time could be released. For comparing on evaluation of the assay the effect of directly applied hβD2 amounts with the effect of hβD2 amounts applied on biopolymers, the achieved percentage killing of bacteria was compared to the killing rate of the hβD2 standard series in the microdilution assays.
The collagen scaffolds and polylactide matrices were examined in the microdilution assay regarding their hβD2 release kinetics. Since the incubation time of the samples in the bacterial suspension is limited, the samples were stored at −25° C. after the test and until completion of a further assay. The thawed samples were then used in a new assay and were incubated again.

With “human β-defensin-2 (GIGDPVTCLKSGAICHPVFCPRRYKQIGTCGLPGTKCCKKP; ends and bridges not checked; cysteine pairing not given here) [hβD2, recombinant hβD2]” the bacteria killing (2 μg hβD2 on collagen scaffold, after 13 hours) was 18%, the killing rate (2 μg hβD2 on collagen scaffold, first 2 hours) was ≤ 36% and the killing rate (4 μg hβD2 and 5 μg chondroitin sulphate on collagen scaffold, 0-2 hours) was 54%. It also gave a killing (4 μg hβD2 and 20 μg spermidine on collagen scaffold, 0-2 hours) of 19%, a killing rate (4 μg hβD2 on collagen scaffold impregnated with 20 μl of 0.1 M L-glutamic acid solution, 0-2 hours) of 53% and a killing rate (4 μg hβD2 on collagen scaffold impregnated with 20 μl of 0.1 M L-lysine solution, 0-2 hours) of 11%. The killing (4 μg hβD2 on collagen scaffold pre-treated with 10 μl of 0.1% gelatine solution, 0-2 hours) was 94%, the killing rate (4 μg hβD2 on collagen scaffold treated with 5 μg BSA, 0-2 hours) was 98% and the “killing of the bacteria” value (4 μg hβD2 on collagen scaffold treated with 5 μg HAS, 0-2 hours) was 100%. For the same substance, the killing rate (4 μg hβD2 on collagen scaffold treated with 60 μg poly-L-glutamic acid, 0-2 hours) was 23%, the killing rate (4 μg hβD2 on collagen scaffold without pre-treatment, first 2 hours) was 89% and 86% and the killing (4 μg hβD2 on collagen scaffold, 17th hour) was 25%. For the same substance, the “bio-activity of the scaffolds” value (4 μg hβD2 on collagen scaffold, after 20 hours) was “depleted”, the “killing (given as release amount in %)” value (4 μg hβD2 on collagen scaffold, first 5 hours) was 38% and the bacteria killing (25 μg hβD2 on polylactide matrix coated with collagen and chondroitin sulphate, first two hours) was 89%. It also gave a bacteria killing (25 μg hβD2 on polylactide matrix coated with collagen, first two hours) of 100%, a bacteria killing (25 μg hβD2 on uncoated polylactide matrix, first two hours) of 100% and a killing (30 μg hβD2 on collagen scaffold, after 13 hours) of 29%. For the same substance, the killing rate (30 μg hβD2 on collagen scaffold, after 17 hours) was 22%, the “activity of the scaffold” value (30 μg hβD2 on collagen scaffold, after 20 hours) was “inactive” and the killing rate (30 μg hβD2 on collagen scaffold, first 5 hours) was 86%. For the same substance, the “killing (given as release amount in %)” value (125 μg hβD2 on collagen scaffold, after 5 hours) was 93%.
